# Activity calls are given as the source filed them. The calls are words filed in the database; no cut-off is given here.
# What was measured:
# Streptococcus pneumoniae [1] = assay: Compound was evaluated for antibacterial activity against Streptococcus pneumoniae; weak activity; type: functional, organism-based
# Human alphaherpesvirus 1 = assay: Compound was evaluated for antiviral activity against Herpes simplex virus type 1; ND means Not detected owing to toxicity; type: functional, organism-based
# Vero = assay: Compound was evaluated for inhibition of cell growth of Vero cells; type: functional; conditions: Chlorocebus sabaeus
# Influenza A virus = assay: Compound was evaluated for antiviral activity against Influenza virus A/PR/8; type: functional, organism-based
# MDCK = assay: Compound was evaluated for inhibition of MDCK cell growth; type: functional; conditions: Canis lupus familiaris
# Candida albicans = assay: Compound was evaluated for inhibitory activity on Candida albicans; active; type: functional, organism-based
# Streptococcus pneumoniae [2] = assay: Compound was evaluated for antibacterial activity against Streptococcus pneumoniae; IA means Inactive; type: functional, organism-based
Compound,Activity (Streptococcus pneumoniae [1]),IC50 (Human alphaherpesvirus 1),CC50 (Vero),IC50 (Influenza A virus),CC50 (MDCK),Activity (Candida albicans),Activity (Streptococcus pneumoniae [2])
CCCCCCC/C=C/C[C@H]1CCC[C@@H]2CCCN21,weak activity,Not detected,9.18 µg/mL,4.84 µg/mL,8.92 µg/mL,–,–
CCCCCCC/C=C\C[C@H]1CCC[C@@H]2CCCN21,weak activity,Not detected,7.67 µg/mL,3.72 µg/mL,9.28 µg/mL,Active,–
CCCCCCC/C=C/C[C@@H]1CCC[C@@H]2CCCN21,–,Not detected,42.3 µg/mL,1.45 µg/mL,20.1 µg/mL,–,inactive
CCCCCCC/C=C\C[C@@H]1CCC[C@@H]2CCCN21,–,Not detected,40.9 µg/mL,4.2 µg/mL,17.1 µg/mL,–,inactive
